Results taken from patent publication US10758522B2, “Small molecule analogs of the nemo binding peptide” (THE SCRIPPS RESEARCH INSTITUTE, priority 2015, dated 2020).

What was measured:
NF-κB = test: EMSA of NF-κB DNA binding in skeletal muscle of mdx mice after acute treatment; format: in vivo, mouse; conditions: single ip injection at 10 mg/kg, 1 and 2 hours post-treatment
Method: We also tested the compounds for their ability to inhibit NF-κB activity acutely in a murine model of disease. For these experiments, a mouse model of Duchenne muscular dystrophy, which has elevated NF-κB activity in muscle, was treated with Zinc-13 (NBDA-1) and Zinc-5 (NBDA-2) and the level of NF-κB activity determined by gel shift analysis at 1 and 2 hours post-treatment.
To confirm that the NBD mimetics reduce IKK activity, the extent of phosphorylation of the IKK target, IκBα, in response to 10 ng/ml of TNF-α was determined by Western blot at 0, 5 and 10 min after TNF-α stimulation. […] To determine if the mimetics also reduce NF-κB DNA binding activity, electrophoretic mobility shift assay (EMSA) was conducted both in vivo and in vitro.
Cytoplasmic and nuclear fractions were extracted using the NE-PER nuclear and cytoplasmic extraction reagents (ThermoFisher) according to the manufacturer's instructions. The gel shift assay was performed by following the previously described method (41). In brief, 5 μg of nuclear extract was incubated with gel shift binding buffer and an α-^32P-deoxycytodine triphosphate-radiolabeled NF-κB probe for 20 min at room temperature (MP Biomedicals). The oligonucleotide sequences are as follows: NF-κB template, 5′-[…]-3′; NF-κB annealing, 5′-[…]-3′. The reaction product was separated on a 6% non-denaturing polyacrylamide gel.

[1] = tested on: K14-Cre; Ercc1−/flox mice; test: Topical treatment of skin aging in K14-Cre; Ercc1−/flox mice; format: in vivo, mouse; conditions: daily
Method: To test the ability of NBDA-1 to function in vivo, the drug was tested in several models of aging. In FIG. 12, the ability of topical treatment of NBDA-1 to reduce signs of skin aging is shown. Areas on the back of normal mice or mice with enhanced skin aging (K14-Cre; Ercc1^−/flox) were shaved and then treated daily with drugs or control creams.

NF-κB target genes [2] = test: qRT-PCR of NF-κB target genes in LPS-stimulated Raw 264.7 cells; format: cell-based, mouse; conditions: Raw 264.7, 1 ug/ml LPS 2 hr; mimetics 50 μM, IKKi VII 2 μM, 8K-NBD 400 μM
Method: Effect of the NBD mimetics on expression of NF-kB regulated genes in the Raw mouse macrophage cell line. Treatment of the Raw cells with the indicated drugs prior to addition of LPS reduced NF-kB-mediated gene expression as measured by RT-PCR.
To determine whether the inhibitory effect of the mimetics is TNF-α-dependent, LPS-mediated NF-κB activation via TLR4 was examined to determine a broader inhibitory effect of the novel NBD mimetics. NF-κB was stimulated in Raw 264.7 by 1 ug/ml of LPS for 2 hr and genes transcriptionally regulated by NF-κB were determined by qRT-PCR analysis. Both an IKK active site inhibitor IKKi VII (2 μM) and the 8K-NBD peptide (400 μM) were included as positive controls and the expression of COX2, IL-6, IL-1β, TNF-α, IκBα and iNOS were assessed.
Raw 264.7 cells were treated with a 50 μM solution of the SR compound for 30 minutes, and then the mRNA was harvested 2 hours after addition of 1 μg/mL LPS.
(§1) Snap frozen tissues were preserved in RNAlater RNA stabilization solution (ThermoFisher) before processed. Total RNA was extracted from cells or tissues using TRIZOL reagent (Life Technologies) and 1500 ng of messenger RNA (mRNA) was subjected to synthesize complementary DNA (cDNA) using SuperScript VILO cDNA synthesis kit. qRT-PCR was performed in a StepOnePlus Real-Time PCR system using Platinum SYBR Green qPCR SuperMix-UDG (ThermoFisher). Target gene expression was calculated using the comparative CT method (ΔΔCT) and normalized to an internal control gene Actb (β-actin). Primers used are as follows: Ptgs2 (COX-2) forward: […]; Ptgs2 (COX-2) reverse: […]; Nfkbia (IκBα) forward: […]; Nfkbia (IκBα) reverse: […]; Il1b (IL-1β) forward: […]; Il1b (IL-1β) reverse: […]; Nos2 (iNOS) forward: […]; Nos2 (iNOS) reverse: […]; Tnf (TNF) forward: […]; Tnf (TNF) reverse: […]; Il6 (IL-6) forward: […]; Il6 (IL-6) reverse: […]. Actb (β-actin) forward: […]; Actb (β-actin) reverse: […];

Ercc1−/Δ mice = test: Chronic treatment of Ercc1−/Δ mouse model of accelerated aging with SR12343; format: in vivo
Description: FIG. 41 summarizes the regimen and endpoints for the study of the effects of NBD mimetics on aging using the Ercc1^−/Δ mouse model of accelerated aging
Thus these novel NBD mimetics could be used not only for treatment of inflammatory and degenerative diseases, but also aging.

NF-κB target genes [3] = test: LPS-induced systemic endotoxemia / acute lung inflammation, qRT-PCR of NF-κB target genes; format: in vivo, mice; conditions: 10 mg/kg
Method: SR12343 and SR12460 initially were tested in an acute model of LPS-induced systemic endotoxemia to determine their NF-κB inhibitory effects in vivo. C57BL/6J mice were pretreated with vehicle control, 8K-NBD peptide or NBD mimetics at 10 mg/kg for 30 min, followed by LPS induction at 10 mg/kg. Lung and liver were harvested 2-4 hr post-treatment for qRT-PCR analysis of NF-κB target genes.
LPS (strain O111:B4) was prepared in PBS at a sub-lethal dose of 10 mg/kg. 8-10 weeks old female WT mice (20-30 g) were dosed i.p. with vehicle, NBD peptide (10 mg/kg) or small molecules (10 mg/kg) for 30 min and followed by i.p. injection of saline (1 ml/kg) or LPS (10 mg/kg). Mice were euthanized 2-4 hr post-treatment and lung was collected for further analysis.
as §1

Compound | NF-κB DNA binding activity in quadriceps of mdx mice (NF-κB; listed as Zinc-13, 10 mg/kg) | NF-κB DNA binding activity in quadriceps of mdx mice (NF-κB; listed as compound 12909780, 10 mg/kg) | epidermal thickness / skin architecture [1] | transcription of NF-κB target genes (COX2, IL-6, IL-1β, TNF-α, IκBα, iNOS) (NF-κB target genes [2]) | glycosaminoglycan (GAG) in intervertebral disc nucleus pulposus (Ercc1−/Δ mice) | healthspan (Ercc1−/Δ mice) | clearance of blood glucose (oral glucose tolerance test) (Ercc1−/Δ mice; 15 wk-old mice) | senescence (Ercc1−/Δ mice; 15 wk-old mice) | aging symptoms associated with frailty (Ercc1−/Δ mice; different ages) | overall score of the aging symptoms (Ercc1−/Δ mice; different ages) | body fat percentage (NMR) (Ercc1−/Δ mice; male mice) | forelimb grip strength (Ercc1−/Δ mice; male mice) | NF-κB target gene expression in lung (iNOS, IκBα, COX2, IL-6) (NF-κB target genes [3]; 30 min before LPS 10 mg/kg, 2-4 hr) | NF-κB target gene expression in liver (NF-κB target genes [3]; LPS 10 mg/kg) | TNF-α expression in lung (NF-κB target genes [3]; LPS 10 mg/kg) | inhibition of NF-κB/IKK in liver and lung (NF-κB target genes [3]; LPS 10 mg/kg)
Nc1ncccc1C(=O)OCC(=O)Nc1ccc(Cl)cc1F [NBDA-1, 2-((4-chloro-2-fluorophenyl)amino)-2-oxoethyl 2-aminonicotinate] | reduced NF-κB DNA binding activity in the skeletal muscle (quadricep) | inhibited NF-κB DNA binding activity in quadriceps | improved epidermal thickness to a greater extent than the peptide on which it was modeled |  |  |  |  |  |  |  |  |  |  |  |  | 
O=C(CNc1ccc(Cl)cn1)NCCc1cccc(Br)c1 [SR12343, N-(3-bromophenethyl)-2-((5-chloropyridin-2-yl)amino)acetamide] |  |  |  | significant inhibition on COX2, IL-6 and iNOS expression | improves pathology in the intervertebral disc as determined by measuring proteoglycans (GAG) | extension of healthspan | improves clearance of glucose in an oral glucose tolerance test | reduces senescence | reduces the onset of symptoms associated with frailty | reduces the onset of symptoms with chronic treatment | reduces loss of fat in male mice | improves grip strength in male mice | downregulate NF-κB transcriptional activity significantly in lung | inhibiting only COX2 expression significantly | unchanged | 
O=C(CNCCc1cc(F)cc(F)c1)Nc1ccc(Cl)cn1 [SR12460, N-(5-chloropyridin-2-yl)-2-((3,5-difluorophenethyl)amino)acetamide] |  |  |  | significantly downregulate the transcription of all NF-κB target genes tested |  |  |  |  |  |  |  |  |  |  |  | less potent compared to SR12343
